Patent publication US20240383872A1, “NOVEL PYRIDINE AND PYRAZINE COMPOUNDS AS INHIBITORS OF CANNABINOID RECEPTOR 2” (HOFFMANN-LA ROCHE INC., priority 2018, published 2024)

Target: human CB2 receptor (CNR2) (Homo sapiens (Human), UniProt P34972)
Assay: Radioligand binding assay, human CB2
Conditions: HEK cell membranes expressing human CNR2, [3H]-CP-55,940 radioligand
Experimental: The affinity of the compounds of the invention for cannabinoid CB1 receptors was determined using recommended amounts of membrane preparations (PerkinElmer) of human embryonic kidney (HEK) cells expressing the human CNRI or CNR2 receptors in conjunction with 1.5 or 2.6 nM [3H]-CP-55,940 (Perkin Elmer) as radioligand, respectively. Binding was performed in binding buffer (50 mM Tris, 5 mM MgCl2, 2.5 mM EDTA, and 0.5% (wt/vol) fatty acid free BSA, pH 7.4 for CB1 receptor and 50 mM Tris, 5 mM MgCl2, 2.5 mM EGTA, and 0.1% (wt/vol) fatty acid free BSA, pH 7.4 for CB2 receptor) in a total volume of 0.2 ml for 1 h at 30° C. shaking. The reaction was terminated by rapid filtration through microfiltration plates coated with 0.5% polyethylenimine (UniFilter GF/B filter plate; Packard). Bound radioactivity was analyzed for Ki using nonlinear regression analysis (Activity Base, ID Business Solution, Limited), with the Kd values for [3H]CP55,940 determined from saturation experiments. The compounds of formula (I) show an excellent affinity for the CB2 receptor.
The compounds according to formula (I) have an activity in the above assay (Ki) between 0.5 nM and 10 μM. Particular compounds of formula (I) have an activity in the above assay (Ki) between 0.5 nM and 3 μM. Other particular compounds of formula (I) have an activity in the above assay (Ki) between 0.5 nM and 100 nM.

Sequence of human CB2 receptor (CNR2) (P34972 whole entry): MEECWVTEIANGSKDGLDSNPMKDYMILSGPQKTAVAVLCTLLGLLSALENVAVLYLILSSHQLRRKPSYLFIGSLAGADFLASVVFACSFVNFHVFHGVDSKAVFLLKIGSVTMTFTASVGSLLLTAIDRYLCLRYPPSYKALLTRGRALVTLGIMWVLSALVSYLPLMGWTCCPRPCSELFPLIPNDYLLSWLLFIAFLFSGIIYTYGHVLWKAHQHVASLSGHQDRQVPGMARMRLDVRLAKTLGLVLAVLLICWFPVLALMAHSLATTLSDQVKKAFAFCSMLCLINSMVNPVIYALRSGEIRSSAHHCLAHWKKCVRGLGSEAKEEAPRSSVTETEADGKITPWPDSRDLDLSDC

COC1CN(c2ccc(C(=O)N[C@H](COCCF)CC(C)C)nc2OCC2CC2)C1 [Example 27, 6-(Cyclopropylmethoxy)-N-[(2S)-1-(2-fluoroethoxy)-4-methylpentan-2-yl]-5-(3-methoxyazetidin-1-yl) pyridine-2-carboxamide]
Ki: 18 nM

CC(C)C[C@H](NC(=O)c1ccc(N2CCCC2)c(OCC2CC2)n1)C(=O)OCCF [Example 14, 2-Fluoroethyl N-[6-(cyclopropylmethoxy)-5-(pyrrolidin-1-yl)pyridine-2-carbonyl]-L-leucinate]
Ki: 15 nM

CC(C)C[C@@H](COCF)NC(=O)c1ccc(N2CCCC2)c(OCC2CC2)n1 [Example 16, 6-(Cyclopropylmethoxy)-N-[(2S)-1-(fluoromethoxy)-4-methylpentan-2-yl]-5-(pyrrolidin-1-yl)pyridine-2-carboxamide]
Ki: 8 nM

COC1CN(c2ccc(C(=O)N[C@H](COCCCF)C(C)C)nc2OCC2CC2)C1 [Example 31, 6-(Cyclopropylmethoxy)-N-[(2S)-1-(3-fluoropropoxy)-3-methylbutan-2-yl]-5-(3-methoxyazetidin-1-yl) pyridine-2-carboxamide]
Ki: 247 nM

CC(C)C[C@@H](COCCCF)NC(=O)c1ccc(N2CCCC2)c(OCC2CC2)n1 [Example 18, 6-(Cyclopropylmethoxy)-N-[(2S)-1-(3-fluoropropoxy)-4-methylpentan-2-yl]-5-(pyrrolidin-1-yl) pyridine-2-carboxamide]
Ki: 40 nM

COC1CN(c2ccc(C(=O)N[C@H](COCCCF)CC(C)C)nc2OCC2CC2)C1 [Example 28, 6-(Cyclopropylmethoxy)-N-[(2S)-1-(3-fluoropropoxy)-4-methylpentan-2-yl]-5-(3-methoxyazetidin-1-yl) pyridine-2-carboxamide]
Ki: 31 nM

COC1CN(c2ccc(C(=O)N[C@@H](CC(C)C)C(=O)OCCCF)nc2OCC2CC2)C1 [Example 12, 3-Fluoropropyl N-[6-(cyclopropylmethoxy)-5-(3-methoxyazetidin-1-yl)pyridine-2-carbonyl]-L-leucinate]
Ki: 46 nM

CCC(CC)(NC(=O)c1ccc(N2CC(C)(F)C2)c(OCC2CC2)n1)C(=O)NCCCF [Example 39, 6-(Cyclopropylmethoxy)-5-(3-fluoro-3-methylazetidin-1-yl)-N-(3-(3-fluoropropylcarbamoyl)pentan-3-yl) picolinamide]
Ki: 524 nM

CCC(CC)(NC(=O)c1ccc(N2CCCC2)c(OCC2CC2)n1)C(=O)OCF [Example 8, 3- Fluoromethyl 2-{[6-(cyclopropylmethoxy)-5-(pyrrolidin-1-yl)pyridine-2-carbonyl]amino}-2-ethylbutanoate]
Ki: 2 nM

CC(C)C[C@H](NC(=O)c1ccc(N2CCCC2)c(OCC2CC2)n1)C(=O)OCF [Example 13, Fluoromethyl N-[6-(cyclopropylmethoxy)-5-(pyrrolidin-1-yl)pyridine-2-carbonyl]-L-leucinate]
Ki: 63 nM

C[C@@H](COCCCF)NC(=O)c1ccc(N2CCCC2)c(OCC2CC2)n1 [Example 24, 6-(Cyclopropylmethoxy)-N-[(2S)-1-(3-fluoropropoxy)propan-2-yl]-5-(pyrrolidin-1-yl)pyridine-2-carboxamide]
Ki: 671 nM

COC1CN(c2ccc(C(=O)N[C@@H](COCCF)CC(C)C)nc2OCC2CC2)C1 [Example 38, 6-(Cyclopropylmethoxy)-N-[(2R)-1-(2-fluoroethoxy)-4-methylpentan-2-yl]-5-(3-methoxyazetidin-1-yl) pyridine-2-carboxamide]
Ki: 1300 nM

CC(C)[C@@H](COCF)NC(=O)c1ccc(N2CCCC2)c(OCC2CC2)n1 [Example 19, 6-(Cylopropylmethoxy)-N-[(2S)-1-(fluoromethoxy)-3-methylbutan-2-yl]-5-(pyrrolidin-1-yl)pyridine-2-carboxamide]
Ki: 70 nM

CC(C)[C@@H](COCCCF)NC(=O)c1ccc(N2CCCC2)c(OCC2CC2)n1 [Example 21, 6-(Cyclopropylmethoxy)-N-[(2S)-1-(3-fluoropropoxy)-3-methylbutan-2-yl]-5-(pyrrolidin-1-yl)pyridine-2-carboxamide]
Ki: 156 nM

CCC(CC)(COCCF)NC(=O)c1ccc(N2CC(OC)C2)c(OCC2CC2)n1 [Example 35, 6-(Cyclopropylmethoxy)-N-{3-[(2-fluoroethoxy)methyl]pentan-3-yl}-5-(3-methoxyazetidin-1-yl) pyridine-2-carboxamide]
Ki: 62 nM

CCC(CC)(NC(=O)c1ccc(N2CCCC2)c(OCC2CC2)n1)C(=O)OCCF [Example 9, 2-Fluoroethyl 2-{[6-(cyclopropylmethoxy)-5-(pyrrolidin-1-yl)pyridine-2-carbonyl]amino}-2-ethylbutanoate]
Ki: 3 nM

C[C@@H](COCF)NC(=O)c1ccc(N2CCCC2)c(OCC2CC2)n1 [Example 22, 6-(Cyclopropylmethoxy)-N-[(2S)-1-(fluoromethoxy)propan-2-yl]-5-(pyrrolidin-1-yl)pyridine-2-carboxamide]
Ki: 787 nM

CC(C)[C@@H](COCCF)NC(=O)c1ccc(N2CCCC2)c(OCC2CC2)n1 [Example 20, 6-(Cyclopropylmethoxy)-N-[(2S)-1-(2-fluoroethoxy)-3-methylbutan-2-yl]-5-(pyrrolidin-1-yl)pyridine-2-carboxamide]
Ki: 60 nM

COC1CN(c2ccc(C(=O)N[C@H](COCCF)C(C)C)nc2OCC2CC2)C1 [Example 30, 6-(Cyclopropylmethoxy)-N-[(2S)-1-(2-fluoroethoxy)-3-methylbutan-2-yl]-5-(3-methoxyazetidin-1-yl) pyridine-2-carboxamide]
Ki: 165 nM

COC1CN(c2ccc(C(=O)N[C@@H](C)COCCF)nc2OCC2CC2)C1 [Example 32, 6-(Cyclopropylmethoxy)-N-[(2S)-1-(2-fluoroethoxy)propan-2-yl]-5-(3-methoxyazetidin-1-yl)pyridine-2-carboxamide]
Ki: 3120 nM

COC1CN(c2ccc(C(=O)N[C@@H](CC(C)C)C(=O)OCF)nc2OCC2CC2)C1 [Example 10, Fluoromethyl N-[6-(cyclopropylmethoxy)-5-(3-methoxyazetidin-1-yl)pyridine-2-carbonyl]-L-leucinate]
Ki: 336 nM

CC(C)C[C@H](COCCF)NC(=O)c1ccc(N2CCCC2)c(OCC2CC2)n1 [Example 37, 6-(Cyclopropylmethoxy)-N-[(2R)-1-(2-fluoroethoxy)-4-methylpentan-2-yl]-5-(pyrrolidin-1-yl)pyridine-2-carboxamide]
Ki: 288 nM

CCC(CC)(NC(=O)c1ccc(N2CC(OC)C2)c(OCC2CC2)n1)C(=O)OCCCF [Example 3, 3-Fluoropropyl 2-{[6-(cyclopropylmethoxy)-5-(3-methoxyazetidin-1-yl)pyridine-2-carbonyl]amino}-2-ethylbutanoate]
Ki: 6 nM

COC1CN(c2ccc(C(=O)N[C@H](COCF)C(C)C)nc2OCC2CC2)C1 [Example 29, 6-(Cyclopropylmethoxy)-N-[(2S)-1-(fluoromethoxy)-3-methylbutan-2-yl]-5-(3-methoxyazetidin-1-yl) pyridine-2-carboxamide]
Ki: 269 nM
